In series [1] the test system is GL261 murine glioma cells. As to the kind of experiment: GL261 cell growth assay (MTT salt). Particulars: 5 μM GlaB, in vitro, starting from 48 h of treatment, N=3, p<0.001. The series is classed as cell-based. The protocol: The GL261 murine glioma cells (Leibniz-Institute DMSZ, ACC802) are grown in an incubator at 37° C. and 5% CO2 in a culture medium containing D-MEM (GIBCO), 20% fetal bovine serum (GIBCO), antibiotics (100 IU/ml penicillin G, 100 μg/ml streptomycin, 2.5 μg/ml amphotericin B), 2 mM glutamine and 1 mM pyruvate sodium.
GL261 murine glioma cells were seeded in culture medium in 96-well plates (5000 cells/well). After 4 h they were treated with 5 μM GlaB (C. Ingallina, P. M. Costa, F. Ghirga, R. Klippstein, J. T. Wang, S. Berardozzi, N. Hodgins, P. Infante, S. M. Pollard, B. Botta, K. T. Al-Jamal. Polymeric glabrescione B nanocapsules for passive targeting of Hedgehog-dependent tumor therapy in vitro. Nanomedicine, (2017), 12(7), 711-728. DOI: 10.2217/nnm-2016-0388) or the vehicle in which it is dissolved (DMSO) and every 24 h for three days their growth was evaluated using the dehydrogenation method of MTT salt (3-(4,5-dimetiltiazol-2-yl)-2,5-diphenyltetrazolium bromide, Sigma-Aldrich). The MTT salt was added to each well containing culture medium at the concentration of 0.5 mg/ml, and after 2 h of incubation at 37° C., cell growth was measured by measuring the spectrophotometer, at a wavelength of 570 nm, the absorbance values related to the amount of MTT salt transformed into formazan (insoluble violet-colored salt) simultaneously by live control cells and cells treated with GlaB.

Series [2] is described as follows: GlaB brain level concentration by HPLC-ESI-MS after intranasal administration. The format is in vivo, mice. The procedure: For HPLC analysis, mice were treated as above and sacrificed two hours post one single nasal administration; brains were collected and frozen (−80° C.) until use.
HPLC analyses were performed on brain samples from mice treated with GlaB/PEG-Cholane. The brain sample (500 mg), previously stored at −80° C. for 24 hours, was homogenized with 1 mL of a Phosphate Buffered Saline solution, PBS, using an ultrasound probe. A solution of ZnSO4 (0.1 M in H2O, 1 mL) and acetonitrile (1 mL) were added to the mixture, which was further homogenized with ultrasound for 15 minutes. Subsequently, the brain homogenate was stirred for 1 hour at room temperature and was then centrifuged at 3000 g for 5 min at T=4° C. The supernatant was collected. The following procedure to obtain a brain extract was repeated twice. Acetonitrile (1 mL) was added to the brain residue, stirred for 30 minutes at room temperature, then centrifuged at 3000 g for 5 min at T=4° C. and the supernatant collected. Brain extracts samples were centrifuged for five minutes at 5000 rpm and 20 μL of supernatant injected into the HPLC without further treatments.
The HPLC chromatographic system used was an UltiMate 3000 RS system (Thermo Fisher Dionex Sunnyvale, Calif.), equipped with an UltiMate 3000 LPG-3400RS Low Pressure Mixing Biocompatible Gradient Pump, an in-line split-loop well plate sampler, a thermostated column ventilated compartment (temperature range: 5-110° C.) and a diode array detector (UltiMate 3000 DAD-3000RS Rapid Separation Diode Array Detector, up to 200 Hz acquisition rate) with a low dispersion 13 μL flow cell. […]
Calibration standards ranged from 0.128 to 8.2 μg/mL for UV curve (y=0.2574x−0.2042, R2=0.9997) with a Limit of Quantitation, LOQ, (defined for a signal-to-noise ratio >10) of 4.1 ng on column, whereas calibration curve ranged 0.128-8.2 μg/ml for MS (y=11176x−1505.9) showing a correlation coefficient (r^2) equal to 0.9991.
A known amount (0.5 μg/mL) of the GlaB analyte (a spike) was added to treated brain sample. The samples and the samples plus spike were then analyzed. […]

For series [3], the system named is murine glioma GL261 cells. As to the kind of experiment: Orthotopic GL261 glioma in mice, tumor volume (procedure A). The series is classed as in vivo, mice (C57BL/6). The following applies: for tumor volume: every two days, N=7, vehicle ethanol:2-hydroxypropyl-beta-cyclodextrin 1:5. The protocol:
Male wild type (C57BL/6) mice were inoculated with murine glioma cells (GL261, Leibniz-Institute DMSZ, ACC802) at the age of 8 weeks (animals weighing an average weight of 22 g). After being anesthetized by intraperitoneal injection of 50 mg/kg Zoletil anaesthetic (combination of tiletamine hypochloride and zolazepam hypochloride) associated with 10 mg/kg Rompun (xylazine), the animals were subjected to orthotopic injection (subcortical/striatum, […] anteroposterior, −2 mm lateral to the bregma) of GL261 cells (1×10^5 cells per mouse) using a stereotaxic apparatus to accurately and reproducibly reach the right striatal region. The cells, resuspended in 5 μl of phosphate buffer, were injected by the use of a Hamilton syringe connected to the stereotaxic apparatus.
GlaB dissolved in the vehicle constituted by ethanol (Sigma-Aldrich #51976): 2-hydroxypropyl-beta-cyclodextrin (Sigma-Aldrich #C0926) solution (10% (w/v) in H2O) in a 1:5 volume ratio was administered by intraperitoneal injections (ip, 35 mg/kg) and intranasally (in, 4.4 mg/kg), every two days after 7 days from the implantation of tumor cells for a total of 6 days of treatment. Intranasal administration was performed through the so-called “snort delivery”: drops of the medicament were sniffed by the animal, anesthetized with 2.5% Isofluorane, until reaching the upper nasal cavity.
The day after the last administration of GlaB, mice were perfused with phosphate buffer and then 4% PFA and their brain isolated, further fixed and frozen. After about 48 h each frozen brain was cut into subsequent coronal slices, 20 μm thick, collected at 100 μm intervals. The determination of tumor volume was performed by histological staining (hematoxylin and eosin) of the brain slices: the tumor mass is recognizable because it has a darker color compared to the remaining healthy tissue. The tumor volume is calculated through analysis of images obtained under a phase contrast microscope (ECLIPSE Ti-S, Nikon) using commercial software released in the public domain (ImageJ, National Institutes of Health of the United States) able to measure the tumor area in each slice, necessary for volume calculation.

Structures are written as SMILES. Entries after “also recorded” stand apart in the source; their conditions may differ.

As for `COc1cc(OC)c2c(=O)c(-c3ccc(OCC=C(C)C)c(OCC=C(C)C)c3)coc2c1` [GlaB, Glabrescione B], the “growth of GL261 tumor cells (MTT absorbance) compared to vehicle (DMSO)” value in series [1] was “reduce their growth capacity; also recorded: significant reduction”. Also, the concentration at 2 h in series [2] (C57BL/6, mouse, brain, other: nasal administration (intranasal), 1.44 mg/Kg, mice, two hours post one single nasal administration of GlaB/PEG-Cholane, read-out: estimated brain level concentration) is 3600 ng/g. Besides, the “GlaB peak in extract ion chromatogram of brain extract (drug reaches brain)” value in series [2] (intranasally GlaB/PEG-Cholane treated mice vs control PEG-Cholane treated mice) is “presence of GlaB peak”. For the same molecule, the “GlaB quantified in brain extract, amount on column” value in series [2] (mice, two hours post one single nasal administration of GlaB/PEG-Cholane, HPLC-MS SIM m/z 451) is on record as 6 ng on column. Besides, the tumor volume reduction entry in series [3] (intranasal formulation in ethanol:2-hydroxypropyl-beta-cyclodextrin solution (1:5 by volume), 4.4 mg/kg) is on record as “about 70%”. In series [3] (intranasal, 4.4 mg/kg), the “glioma volume in vivo compared to control solution” value is given as “significantly reduce glioma volume” and the tumor volume is 0.21 mm³. In series [3] (intraperitoneal, 35 mg/kg), the “glioma volume in vivo compared to control solution” value is “significantly reduce glioma volume” and the tumor volume worked out at 0.48 mm³.

The record behind these values is US20210030714A1, “COMPOUNDS FOR USE IN THE TREATMENT OF BRAIN DISEASES” (UNIVERSITA DEGLI STUDI DI ROMA "LA SAPIENZA", priority 2018, published 2021).
